Values of other authors in patent publication US10166183B2, “Pharmaceutical formulations” (AUSPEX PHARMACEUTICALS, INC., priority 2014, dated 2019).

Conditions: in human plasma; metabolites of orally administered tetrabenazine

Row | half-lives [h] | Compound
1 | 5 | COc1cc2c(cc1OC)[C@H]1C[C@H](O)[C@H](CC(C)C)CN1CC2 [β-HTBZ, beta-dihydrotetrabenazine]
2 | 7 | alpha-dihydrotetrabenazine [α-HTBZ]
